Entries after “also recorded” stand apart in the source; their conditions may differ.
How the values were obtained:
[1] = system: EMT6, CT26, 4T1 murine tumors; assay: In vivo murine tumor models (FIG. 2); set-up: species or system mouse; details: compounds 50 mg/kg oral gavage once a day 5 days a week, anti PD-1 10 mg/kg ip three times a week
Excerpt: Four different immune-oncology mouse models of cancer were used to evaluate the in vivo efficacy of compounds 8 and 10 of this invention. In this experiment, we compared the efficacy of an anti PD-1 antibody with that shown by the HDAC6 inhibitors. Anti PD-1 targets the immune checkpoint PD-1/PD-L1 axis and is an established immunotherapy in a growing number of malignancies (Pardoll D. M., Nature Reviews Cancer, 2012, 12: 252-264).
Tumors were induced in immunocompetent mice using the following cell lines: • EMT6 (murine breast cancer) • CT26 (murine colon cancer • 4T1 (triple negative murine breast cancer)
• Therapeutic treatment started when tumor nodules reached approximately 3 mm in diameter. • Compounds 8 and 10 were administered by oral gavage once a day for 5 days a week at 50 mg/kg. • Anti PD-1 antibody was administered three times a week by ip injection at 10 mg/kg.

[2] = system: CT26 tumor; assay: CT-26 murine model, single agents and combination with anti PD-1 (FIG. 3); format: in vivo, BALB/c mice; details: for CT-26 tumor growth/progression, single agent: p.o. 50 mg/Kg daily
Experimental: FIG. 3: HDAC6 inhibitors reduces CT-26 tumor growth in vivo and their activity can be improved by combined treatment with anti PD-1 antibody. Statistics was evaluated at day 30 by Student's t test. *, P<0.05; **, P<0.01; ***, P<0.001. See text for further details. […] Adult BALB/c mice were injected s.c. with 1×10^6 CT26 tumor cells (diluted to 100 ul with phosphate-buffered saline). One week later, mice were given daily compounds 8 and 10 p.o. at 50 mg/Kg and/or injected with anti-PD1 antibody at 10 mg/Kg. At time of sacrifice, spleens were taken to analyze ex vivo, the tumor immune response. Spleen cells were stimulated with a mixture of CT-26 tumor specific peptides recognized in the context of both MHC I and MHC II. Thus, using this ex vivo stimulation, a specific tumor response mediated by CD4 and CD8 T cells can be detected.

[3] = system: CD4 and CD8 T cells of CT-26 bearing mice; assay: Ex vivo stimulation of splenocytes with CT-26 tumor peptides, IFN-γ and TNF-α by CD4 and CD8 T cells (ELISPOT); format: in vivo, BALB/c mice; details: splenocytes stimulated with CT-26 specific peptides, FIGS. 4 and 5
Experimental: Splenocytes of animal treated with Compounds 8 and 10 and the combination with anti PD-1 Ab were stimulated with CT-26 derived tumor peptides and the production of IFN-γ and TNF-α by CD4 T cells was quantified by ELISPOT.
Splenocytes of animal treated with Compound 8 and 10 and the combination with anti PD-1 Ab were stimulated with CT-26 derived tumor peptides and the production of IFN-γ and TNF-α by CD8 Tcells was quantified by ELISPOT.
Adult BALB/c mice were injected s.c. with 1×10^6 CT26 tumor cells (diluted to 100 ul with phosphate-buffered saline). One week later, mice were given daily compounds 8 and 10 p.o. at 50 mg/Kg and/or injected with anti-PD1 antibody at 10 mg/Kg. At time of sacrifice, spleens were taken to analyze ex vivo, the tumor immune response. Spleen cells were stimulated with a mixture of CT-26 tumor specific peptides recognized in the context of both MHC I and MHC II. Thus, using this ex vivo stimulation, a specific tumor response mediated by CD4 and CD8 T cells can be detected.
The results are shown in FIGS. 4 and 5 where the percentage of CD4 and CD8 T cells that produce IFN-γ and TNF-α are indicated for each treatment group.

O=C(NO)c1ccc(Cn2nnnc2-c2cccs2)cc1 [comp. 8, N-hydroxy-4-((5-(thiophen-2-yl)-1H-tetrazol-1-yl)methyl)benzamide]
tumor growth in vivo [1]: comparable efficacy in reducing tumor growth; also recorded: reduce tumor growth in vivo
CT-26 tumor growth/progression, single agent [2]: significantly reduce CT-26 tumor progression
ex vivo tumor specific T cell immune response [3]: greater neo antigen immune response

Cn1c(Sc2ccc(C(=O)NO)cc2)nnc1-c1cccs1 [comp. 10, N-hydroxy-4-((4-methyl-5-(thiophen-2-yl)-4H-1,2,4-triazol-3-yl)thio)benzamide]
tumor growth in vivo [1]: comparable efficacy in reducing tumor growth; also recorded: reduce tumor growth in vivo
CT-26 tumor growth inhibition, combination with anti PD-1 antibody ([2]; compound p.o. 50 mg/Kg plus anti-PD1 antibody 10 mg/Kg): further improves tumor growth inhibition
CT-26 tumor growth/progression, single agent [2]: significantly reduce CT-26 tumor progression
ex vivo tumor specific T cell immune response [3]: greater neo antigen immune response
